From patent publication US20200354426A1 (MEDIMMUNE LIMITED, priority 2016, published 2020)
pEC50: −log10 of the molar value. Numbered stars: 1 amine (or outer) side, 2 acyl side, 3 side chain; on linkers, the order of the positions; unused ones are H or OH. Side chains are listed from the residue outwards. Peptide text beside a SMILES is read from it. * marks the point of attachment. γGlu = O=C(O)[C@H](CCC(=O)[*:2])N[*:1]; Palmitoyl = CCCCCCCCCCCCCCCC(=O)*; Ahx = NCCCCCC(=O)O

Columns and labels:
Assay in all cases: cAMP activity assay in assay medium (assay 1)
Format in all cases: cell-based
Human GlucR = biological target: T1, Human GlucR (Homo sapiens, UniProt P47871); settings: assay medium; Table 4; read-out: hGlucR EC50
T1 construct: expressed in transfected cells
T1 sequence (P47871 26-477): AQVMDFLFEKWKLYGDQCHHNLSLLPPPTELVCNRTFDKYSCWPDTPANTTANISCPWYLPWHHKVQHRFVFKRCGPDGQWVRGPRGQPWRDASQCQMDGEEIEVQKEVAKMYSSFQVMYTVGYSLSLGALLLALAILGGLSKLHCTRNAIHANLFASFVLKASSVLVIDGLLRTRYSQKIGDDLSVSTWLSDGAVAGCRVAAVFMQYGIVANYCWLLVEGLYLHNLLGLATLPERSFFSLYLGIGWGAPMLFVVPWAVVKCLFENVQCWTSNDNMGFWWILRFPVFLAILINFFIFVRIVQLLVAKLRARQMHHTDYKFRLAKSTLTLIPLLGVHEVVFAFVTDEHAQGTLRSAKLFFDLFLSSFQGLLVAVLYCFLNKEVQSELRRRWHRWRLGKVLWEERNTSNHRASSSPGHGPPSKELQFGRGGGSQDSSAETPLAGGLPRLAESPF
Source text: (§1) Biological Activity of Peptides in Cell-Based cAMP Activity Assay (Assay 1):
(§2) All sample dilutions were made in duplicate.

Human GIPr = biological target: T2, Human GIPr (Homo sapiens, UniProt P48546); settings: assay medium; Table 4; read-out: hGIPR EC50
T2 construct: expressed in transfected cells
T2 sequence (P48546 22-466): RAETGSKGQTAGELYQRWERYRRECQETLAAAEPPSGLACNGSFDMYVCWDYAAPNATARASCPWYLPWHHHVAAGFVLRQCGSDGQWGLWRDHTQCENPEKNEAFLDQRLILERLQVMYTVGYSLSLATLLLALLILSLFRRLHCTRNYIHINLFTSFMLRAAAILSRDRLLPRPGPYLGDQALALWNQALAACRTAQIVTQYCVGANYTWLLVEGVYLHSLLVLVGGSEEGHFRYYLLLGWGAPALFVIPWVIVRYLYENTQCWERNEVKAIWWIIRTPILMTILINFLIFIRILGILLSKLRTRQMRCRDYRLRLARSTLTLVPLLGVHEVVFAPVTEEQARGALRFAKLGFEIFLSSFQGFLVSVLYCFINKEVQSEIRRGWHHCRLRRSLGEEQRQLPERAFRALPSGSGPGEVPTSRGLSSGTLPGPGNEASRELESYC
Source text: as §1, §2

Human GLP1R = Human GLP1R (Homo sapiens, UniProt P43220); design: expressed in transfected cells; settings: assay medium; Table 4; read-out: hGLP1R EC50
Sequence of Human GLP1R (P43220 24-463): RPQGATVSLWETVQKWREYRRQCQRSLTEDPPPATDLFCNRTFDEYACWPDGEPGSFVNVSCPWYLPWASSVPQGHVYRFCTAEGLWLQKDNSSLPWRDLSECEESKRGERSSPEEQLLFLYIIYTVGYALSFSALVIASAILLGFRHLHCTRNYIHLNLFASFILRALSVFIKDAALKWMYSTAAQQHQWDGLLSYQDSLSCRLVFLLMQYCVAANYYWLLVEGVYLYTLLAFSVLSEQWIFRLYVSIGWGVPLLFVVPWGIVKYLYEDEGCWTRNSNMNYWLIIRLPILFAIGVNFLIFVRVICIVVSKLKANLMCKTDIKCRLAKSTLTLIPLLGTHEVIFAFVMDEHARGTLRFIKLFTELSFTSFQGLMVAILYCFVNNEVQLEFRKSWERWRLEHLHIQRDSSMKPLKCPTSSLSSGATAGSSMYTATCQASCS
Source text: as §1, §2

| Structure (SMILES) | pEC50 (Human GlucR) | pEC50 (Human GIPr) | pEC50 (Human GLP1R) |
| --- | --- | --- | --- |
| CCCCCCCCCCCCCCCC(=O)N[C@@H](CCC(=O)NCCCC[C@H](NC(=O)[C@H](CO)NC(=O)[C@H](CC(=O)O)NC(=O)[C@H](CC(C)C)NC(=O)[C@H](Cc1ccc(O)cc1)NC(=O)[C@H](CCCCN)NC(=O)[C@H](CO)NC(=O)[C@H](Cc1ccc(O)cc1)NC(=O)[C@H](CC(=O)O)NC(=O)[C@H](CO)NC(=O)[C@@H](NC(=O)[C@H](Cc1ccccc1)NC(=O)[C@@H](NC(=O)CNC(=O)[C@H](CCC(N)=O)NC(=O)CNC(=O)[C@@H](N)Cc1c[nH]cn1)[C@@H](C)O)[C@@H](C)O)C(=O)N[C@@H](CCCNC(=N)N)C(=O)N[C@@H](C)C(=O)N[C@@H](CCC(N)=O)C(=O)N[C@@H](CC(=O)O)C(=O)N[C@@H](Cc1ccccc1)C(=O)N[C@H](C(=O)N[C@@H](CCC(=O)O)C(=O)N[C@@H](Cc1c[nH]c2ccccc12)C(=O)N[C@@H](CC(C)C)C(=O)N[C@H](C(=O)N[C@@H](C)C(=O)NCC(=O)NCC(N)=O)C(C)C)C(C)C)C(=O)O [g679] (H-HGQGTFTSDYSKYLDSK([γGlu-Palmitoyl])RAQDFVEWLVAGG-NH2; N-terminus assumed) | 9.72 | 6.93 | 9.87 |
| CCCCCCCCCCCCCCCC(=O)N[C@@H](CCC(=O)NCCCC[C@H](NC(=O)[C@H](CO)NC(=O)[C@H](CC(=O)O)NC(=O)[C@H](CC(C)C)NC(=O)[C@H](Cc1ccc(O)cc1)NC(=O)[C@H](CCCCN)NC(=O)[C@H](CO)NC(=O)[C@H](Cc1ccc(O)cc1)NC(=O)[C@H](CC(=O)O)NC(=O)[C@H](CO)NC(=O)[C@@H](NC(=O)[C@H](Cc1ccccc1)NC(=O)[C@@H](NC(=O)CNC(=O)[C@H](CCC(N)=O)NC(=O)CNC(=O)[C@@H](N)Cc1c[nH]cn1)[C@@H](C)O)[C@@H](C)O)C(=O)N[C@@H](CCCNC(=N)N)C(=O)N[C@@H](C)C(=O)N[C@@H](CCC(=O)O)C(=O)N[C@@H](CC(=O)O)C(=O)N[C@@H](Cc1ccccc1)C(=O)N[C@H](C(=O)N[C@@H](CCC(=O)O)C(=O)N[C@@H](Cc1c[nH]c2ccccc12)C(=O)N[C@@H](CC(C)C)C(=O)N[C@H](C(=O)N[C@@H](C)C(=O)NCC(=O)NCC(N)=O)C(C)C)C(C)C)C(=O)O [g680] (H-HGQGTFTSDYSKYLDSK([γGlu-Palmitoyl])RAEDFVEWLVAGG-NH2; N-terminus assumed) | 8.43 | 7.01 | 9.71 |
| CCCCCCCCCCCCCCCC(=O)N[C@@H](CCC(=O)NCCCC[C@H](NC(=O)[C@H](CO)NC(=O)[C@H](CC(=O)O)NC(=O)[C@H](CC(C)C)NC(=O)[C@H](Cc1ccc(O)cc1)NC(=O)[C@H](CCCCN)NC(=O)[C@H](CO)NC(=O)[C@H](Cc1ccc(O)cc1)NC(=O)[C@H](CC(=O)O)NC(=O)[C@H](CO)NC(=O)[C@@H](NC(=O)[C@H](Cc1ccccc1)NC(=O)[C@@H](NC(=O)CNC(=O)[C@H](CCC(=O)O)NC(=O)CNC(=O)[C@@H](N)Cc1c[nH]cn1)[C@@H](C)O)[C@@H](C)O)C(=O)N[C@@H](CCCNC(=N)N)C(=O)N[C@@H](C)C(=O)N[C@@H](CCC(=O)O)C(=O)N[C@@H](CC(=O)O)C(=O)N[C@@H](Cc1ccccc1)C(=O)N[C@H](C(=O)N[C@@H](CCC(=O)O)C(=O)N[C@@H](Cc1c[nH]c2ccccc12)C(=O)N[C@@H](CC(C)C)C(=O)N[C@H](C(=O)N[C@@H](C)C(=O)NCC(=O)NCC(N)=O)C(C)C)C(C)C)C(=O)O [g681] (H-HGEGTFTSDYSKYLDSK([γGlu-Palmitoyl])RAEDFVEWLVAGG-NH2; N-terminus assumed) | 7.40 | 6.91 | 9.55 |
| CCCCCCCCCCCCCCCC(=O)NCCCCCC(=O)NCCCC[C@H](NC(=O)[C@H](CO)NC(=O)[C@H](CC(=O)O)NC(=O)[C@H](CC(C)C)NC(=O)[C@H](Cc1ccc(O)cc1)NC(=O)[C@H](CCC(=O)O)NC(=O)[C@H](CO)NC(=O)[C@H](Cc1ccc(O)cc1)NC(=O)[C@H](CC(=O)O)NC(=O)[C@H](CO)NC(=O)[C@@H](NC(=O)[C@H](Cc1ccccc1)NC(=O)[C@@H](NC(=O)CNC(=O)[C@H](CCC(N)=O)NC(=O)CNC(=O)[C@@H](N)Cc1c[nH]cn1)[C@@H](C)O)[C@@H](C)O)C(=O)N[C@@H](CCCNC(=N)N)C(=O)N[C@@H](C)C(=O)N[C@@H](CCCNC(=N)N)C(=O)N[C@@H](CC(=O)O)C(=O)N[C@@H](Cc1ccccc1)C(=O)N[C@H](C(=O)N[C@@H](C)C(=O)N[C@@H](Cc1c[nH]c2ccccc12)C(=O)N[C@@H](CC(C)C)C(=O)N[C@@H](CCC(=O)O)C(=O)N[C@@H](CCCNC(=N)N)C(=O)NCC(=O)NCC(N)=O)C(C)C [g684] (H-HGQGTFTSDYSEYLDSK([Ahx-Palmitoyl])RARDFVAWLERGG-NH2; N-terminus assumed) | 9.79 | 6.84 | 10.82 |

Continued, values first:

| pEC50 (Human GlucR) | pEC50 (Human GIPr) | pEC50 (Human GLP1R) | Structure (SMILES) |
| --- | --- | --- | --- |
| 11.60 | 9.00 | 10.69 | CCCCCCCCCCCCCCCC(=O)N[C@@H](CCC(=O)NCCCC[C@H](NC(=O)[C@H](CC(=O)O)NC(=O)[C@H](CO)NC(=O)[C@@H](NC(=O)[C@H](Cc1ccccc1)NC(=O)[C@@H](NC(=O)CNC(=O)[C@H](CCC(N)=O)NC(=O)[C@H](CO)NC(=O)[C@@H](N)Cc1c[nH]cn1)[C@@H](C)O)[C@@H](C)O)C(=O)N[C@@H](CO)C(=O)N[C@@H](CCCCN)C(=O)N[C@@H](Cc1ccc(O)cc1)C(=O)N[C@@H](CC(C)C)C(=O)N[C@@H](CC(=O)O)C(=O)N[C@@H](CO)C(=O)N[C@@H](CCCNC(=N)N)C(=O)N[C@@H](CCCNC(=N)N)C(=O)N[C@@H](C)C(=O)N[C@@H](CCC(N)=O)C(=O)N[C@@H](CC(=O)O)C(=O)N[C@@H](Cc1ccccc1)C(=O)N[C@H](C(=O)N[C@@H](CCC(N)=O)C(=O)N[C@@H](Cc1c[nH]c2ccccc12)C(=O)N[C@@H](CC(C)C)C(=O)N[C@H](C(=O)N[C@@H](C)C(=O)NCC(=O)NCC(N)=O)C(C)C)C(C)C)C(=O)O [g715] (H-HSQGTFTSDK([γGlu-Palmitoyl])SKYLDSRRAQDFVQWLVAGG-NH2; N-terminus assumed) |
| 8.61 | 7.93 | 7.89 | CCCCCCCCCCCCCCCC(=O)N[C@@H](CCC(=O)NCCCC[C@H](NC(=O)[C@H](Cc1ccc(O)cc1)NC(=O)[C@H](CC(=O)O)NC(=O)[C@H](CO)NC(=O)[C@@H](NC(=O)[C@H](Cc1ccccc1)NC(=O)[C@@H](NC(=O)CNC(=O)[C@H](CCC(N)=O)NC(=O)[C@H](CO)NC(=O)[C@@H](N)Cc1c[nH]cn1)[C@@H](C)O)[C@@H](C)O)C(=O)N[C@@H](CCCCN)C(=O)N[C@@H](Cc1ccc(O)cc1)C(=O)N[C@@H](CC(C)C)C(=O)N[C@@H](CC(=O)O)C(=O)N[C@@H](CO)C(=O)N[C@@H](CCCNC(=N)N)C(=O)N[C@@H](CCCNC(=N)N)C(=O)N[C@@H](C)C(=O)N[C@@H](CCC(N)=O)C(=O)N[C@@H](CC(=O)O)C(=O)N[C@@H](Cc1ccccc1)C(=O)N[C@H](C(=O)N[C@@H](CCC(N)=O)C(=O)N[C@@H](Cc1c[nH]c2ccccc12)C(=O)N[C@@H](CC(C)C)C(=O)N[C@H](C(=O)N[C@@H](C)C(=O)NCC(=O)NCC(N)=O)C(C)C)C(C)C)C(=O)O [g716] (H-HSQGTFTSDYK([γGlu-Palmitoyl])KYLDSRRAQDFVQWLVAGG-NH2; N-terminus assumed) |
| 8.49 | 6.01 | 9.39 | CCCCCCCCCCCCCCCC(=O)N[C@@H](CCC(=O)NCCCC[C@H](NC(=O)[C@H](CO)NC(=O)[C@H](CC(=O)O)NC(=O)[C@H](CC(C)C)NC(=O)[C@H](Cc1ccc(O)cc1)NC(=O)[C@H](CCC(=O)O)NC(=O)[C@H](CO)NC(=O)[C@H](Cc1ccc(O)cc1)NC(=O)[C@H](CC(=O)O)NC(=O)[C@H](CO)NC(=O)[C@@H](NC(=O)[C@H](Cc1ccccc1)NC(=O)[C@@H](NC(=O)CNC(=O)[C@H](CCC(N)=O)NC(=O)CNC(=O)[C@@H](N)Cc1c[nH]cn1)[C@@H](C)O)[C@@H](C)O)C(=O)N[C@@H](CCCNC(=N)N)C(=O)N[C@@H](C)C(=O)N[C@@H](CCCNC(=N)N)C(=O)N[C@@H](CC(=O)O)C(=O)N[C@@H](Cc1ccccc1)C(=O)N[C@H](C(=O)N[C@@H](C)C(=O)N[C@@H](Cc1c[nH]c2ccccc12)C(=O)N[C@@H](CC(C)C)C(=O)N[C@@H](CCC(=O)O)C(=O)N[C@@H](CCCNC(=N)N)C(=O)NCC(=O)NCC(N)=O)C(C)C)C(=O)O [g721] (H-HGQGTFTSDYSEYLDSK([γGlu-Palmitoyl])RARDFVAWLERGG-NH2; N-terminus assumed) |
| 7.95 | 5.78 | 9.37 | CCCCCCCCCCCCCCCC(=O)N[C@@H](CCC(=O)NCCCC[C@H](NC(=O)[C@H](CO)NC(=O)[C@H](CC(=O)O)NC(=O)[C@H](CC(C)C)NC(=O)[C@H](Cc1ccc(O)cc1)NC(=O)[C@H](CCC(=O)O)NC(=O)[C@H](CO)NC(=O)[C@H](Cc1ccc(O)cc1)NC(=O)[C@H](CC(=O)O)NC(=O)[C@H](CO)NC(=O)[C@@H](NC(=O)[C@H](Cc1ccccc1)NC(=O)[C@@H](NC(=O)CNC(=O)[C@H](CCC(N)=O)NC(=O)CNC(=O)[C@@H](N)Cc1c[nH]cn1)[C@@H](C)O)[C@@H](C)O)C(=O)N[C@@H](CCCNC(=N)N)C(=O)N[C@@H](C)C(=O)N[C@@H](C)C(=O)N[C@@H](CC(=O)O)C(=O)N[C@@H](Cc1ccccc1)C(=O)N[C@H](C(=O)N[C@@H](C)C(=O)N[C@@H](Cc1c[nH]c2ccccc12)C(=O)N[C@@H](CC(C)C)C(=O)N[C@@H](CCC(=O)O)C(=O)N[C@@H](CCCNC(=N)N)C(=O)NCC(=O)NCC(N)=O)C(C)C)C(=O)O [g722] |
